Test results as given in patent publication US20220023436A1, “COMBINATION OF ANTIBODY-DRUG CONJUGATE WITH PARP INHIBITOR” (DAIICHI SANKYO COMPANY, LIMITED, priority 2018, published 2022).
Where two headings read alike, the source gives them in different places.

Experiments:
[1] = test system: Human gastric cancer cell line NCI-N87; format: cell-based
Procedure: Human gastric cancer cell line NCI-N87, which was obtained from ATCC (American Type Culture Collection), was used for evaluation. […] Then, NCI-N87 cells suspended at 4×10^4 cells/mL with RPMI1640 Medium containing 10% fetal bovine serum were seeded at 2.5 μL/well, and cultured at 37° C. under 5%CO2 for 6 days.
After culturing, a solution of CellTiter-Glo 2.0 Assay (Promega) diluted with an equivalent volume of Glo Lysis buffer, 1× (Promega) was added at 2 μL/well and subjected to incubation at room temperature for an hour, followed by measurement of luminescence intensity of each well.
Cell growth inhibition rate […] in each condition was calculated using the following formula: […]
T: average luminescence intensity of wells added with each sample
B: average luminescence intensity of wells added with DMSO and medium
C: average luminescence intensity of wells added with DMSO and cells
Furthermore, sigmoid fitting was performed for the concentration-dependent transition of cell growth inhibition rate in each combination condition using Genedata Screener Analyzer Version 14 (Genedata, hereinafter referred to as Screener).
(§1) For combination effects, differences between estimates of additive effects from the Loewe model (Greco W R. et al., Pharmacol. Rev. 1995 June; 47 (2): 331-85) and cell growth inhibition rates (%) subjected to sigmoid fitting were converted to matrices, and Synergy Scores were calculated from the matrix elements using a method described in the reference (Lehar J. et al., Nat Biotechnol. 2009 July; 27 (7):659-66). Besides, Synergy Score=0 indicates an additive effect; Synergy Score>0 indicates a synergistic effect; and Synergy Score<0 indicates an antagonistic effect.

[2] = test system: Human breast cancer cell line KPL-4; format: cell-based; settings: KPL-4 cell line
Procedure: as §1
(§2) Human breast cancer cell line KPL-4, which was obtained from Dr. Junichi Kurebayashi in Kawasaki Medical School [British Journal of Cancer, (1999) 79 (5/6). 707-717], was used for evaluation. […] Then, KPL-4 cells suspended at 1×10^4 cells/mL with RPMI1640 Medium containing 10% fetal bovine serum were seeded at 2.5 μL/well, and cultured at 37° C. under 5%CO2 for 6 days. After culturing, a solution of CellTiter-Glo 2.0 Assay diluted with an equivalent volume of Glo Lysis buffer, 1× was added at 2 μL/well and subjected to incubation at room temperature for an hour, followed by measurement of luminescence intensity of each well.

[3] = test system: Human lung cancer cell line EBC-1; format: cell-based; settings: EBC-1 cell line
Procedure: as §1
as §2, with “lung” for “breast”, “EBC-1,” for “KPL-4,”, “Health Science Research Resources Bank (current Japanese Collection” for “Dr. Junichi Kurebayashi in Kawasaki Medical School [British Journal”, “Research Bioresources [JCRB] Cell Bank),” for “Cancer, (1999) 79 (5/6). 707-717],”, “EBC-1” for “KPL-4”, “2×10^4” for “1×10^4”

[4] = test system: Human breast cancer cell line HCC70; format: cell-based
Procedure: as §1
Human breast cancer cell line HCC70, which was obtained from ATCC, was used for evaluation. […] Then, HCC70 cells suspended at 4×10^4 cells/mL with RPMI1640 Medium containing 10% fetal bovine serum were seeded at 2.5 μL/well, and cultured at 37° C. under 5%CO2 for 6 days. After culturing, a solution of CellTiter-Glo 2.0 Assay diluted with an equivalent volume of Glo Lysis buffer, 1× was added at 2 μL/well and subjected to incubation at room temperature for an hour, followed by measurement of luminescence intensity of each well.

[5] = test system: Human pancreatic cancer cell line BxPC-3; format: cell-based; settings: BxPC-3 cell line
Procedure: as §1
Human pancreatic cancer cell line BxPC-3, which was obtained from ATCC, was used for evaluation. […] Then, BxPC-3 cells suspended at 4×10^4 cells/mL with RPMI1640 Medium containing 10% fetal bovine serum were seeded at 2.5 μL/well, and cultured at 37° C. under 5%CO2 for 6 days. After culturing, a solution of CellTiter-Glo 2.0 Assay (Promega) diluted with an equivalent volume of Glo Lysis buffer, 1× (Promega) was added at 2 μL/well and subjected to incubation at room temperature for an hour, followed by measurement of luminescence intensity of each well.

[6] = test system: Human breast cancer cell line KPL-4; format: in vivo, BALB/c nude mice
Procedure: The calculation formula is as shown below.
Human breast cancer cell line KPL-4 [British Journal of Cancer, (1999) 79 (5/6).
Incidentally, in the following evaluation examples relating to antitumor studies, unless otherwise described, the studies are performed by the procedure used in this evaluation example.

[7] = test system: Human ovarian cancer cell line OV-90; assay: Antitumor study (9), subcutaneously transplanted OV-90 cells, CDH6-ADC (1); settings: OV-90 model, Day 17 after administration, single administration group; cachexia-like weight loss when tumor size exceeds 1500 mm^3
Procedure: (§3) Measurement and calculation formula: In all studies, the major axis and minor axis of tumors were measured twice a week with an electronic digital caliper (CD15-CX, Mitutoyo Corp.), and the tumor volume (mm^3) was calculated. The calculation formula is as shown below.
(§4) Tumor growth inhibition (%)=100×(1−T/C) • T: Average tumor volume of mice of test substance administration group • C: Average tumor volume of mice of control group
Talazoparib was dissolved with DMSO, diluted with 0.5% hydroxypropyl methylcellulose, and orally administered in a fluid volume of 10 mL/kg. […] Veliparib was dissolved with a 0.05M CH COON solution and orally administered in a fluid volume of 10 mL/kg.
Human ovarian cancer cell line OV-90, which was purchased from ATCC, was suspended into physiological saline, subcutaneously transplanted at 1×10^7 cells into the right side of female nude mice, and the mice were randomly grouped 14 days after the transplantation (Day 0). […] Single administration groups of each drug, a combined administration group, and a solvent administration group as a control group were set up.

[8] = test system: Human gastric cancer cell line NCI-N87; format: in vivo, BALB/c nude mice; settings: NCI-N87 s.c. in nude mice; HER2-ADC (1) 1 mg/kg iv Day 0; olaparib 50 mg/kg, talazoparib 0.4 mg/kg once a day, five times a week, two weeks
Procedure: as §3
(§5) Tumor volume (mm^3)=1/2×Major axis (mm)×[Minor axis (mm)]^2
Talazoparib was dissolved with DMSO, diluted with 0.5% hydroxypropyl methylcellulose, and orally administered in a fluid volume of 10 mL/kg.
Human gastric cancer cell line NCI-N87, which was purchased from ATCC (American Type Culture Collection), was suspended into physiological saline, subcutaneously transplanted at 1×10^7 cells into the right side of female nude mice, and the mice were randomly grouped 6 days after the transplantation (Day 0). […] Single administration groups of each drug, a combined administration group, and a solvent administration group as a control group were set up.

[9] = test system: Human ovarian cancer cell line SK-OV-3; format: in vivo, BALB/c nude mice; settings: SK-OV-3 s.c. in nude mice; HER2-ADC (1) 3 mg/kg iv Day 0 and Day 14; olaparib 60 mg/kg, talazoparib 0.4 mg/kg once a day, five times a week, three weeks
Procedure: as §3, §5
(§6) The HER2-ADC (1) was diluted with ABS buffer (10 mM acetate buffer [pH 5.5], 5% sorbitol), and intravenously administered in a fluid volume of 10 mL/kg to the tail vein. […] Talazoparib was dissolved with DMSO, diluted with 0.5% hydroxypropyl methylcellulose, and orally administered in a fluid volume of 10 mL/kg.
Human ovarian cancer cell line SK-OV-3 cells, which were purchased from ATCC (American Type Culture Collection), were maintained by nude mouse transplantation, subcutaneously transplanted in the form of a tumor mass of solid tumor (3×3×3 mm) into the right side of female nude mice, and the mice were randomly grouped 19 days after the transplantation (Day 0). HER2-ADC (1) was intravenously administered to the tail vein at a dose of 3 mg/kg on Day 0 and Day 14. […] Single administration groups of each drug, a combined administration group, and a solvent administration group as a control group were set up.

[10] = test system: Human breast cancer cell line MX-1; format: in vivo; settings: MX-1 s.c. in nude mice; HER2-ADC (1) 3 mg/kg iv Day 0; olaparib 100 mg/kg po, talazoparib 0.4 mg/kg po once a day, five times a week, two weeks
Procedure: (§7) Talazoparib was dissolved with dimethyl acetamide, diluted with 5% Kolliphor HS15/Dulbecco's phosphate-buffered saline, and orally administered in a fluid volume of 10 mL/kg.
Human breast cancer cell line MX-1, which was purchased from CLS (Cell Lines Service), was suspended into 50% Matrigel matrix, subcutaneously transplanted at 5×10^6 cells into the right side of female nude mice, and the mice were randomly grouped 13 days after the transplantation (Day 0). The HER2-ADC (1) was intravenously administered to the tail vein at a dose of 3 mg/kg on Day 0. […] Single administration groups of each drug, a combined administration group, and a solvent administration group as a control group were set up.

[11] = test system: Human breast cancer cell line MX-1; assay: Antitumor study (6), subcutaneously transplanted MX-1 cells, HER3-ADC (1); format: in vivo; settings: MX-1 s.c. in nude mice; HER3-ADC (1) 3 mg/kg iv Day 0, 7, 15; olaparib 100 mg/kg po, talazoparib 0.4 mg/kg po once a day, five times a week, two weeks
Procedure: as §7
(§8) In Examples 16 and 17, HER3-ADC (1) was diluted with ABS buffer (10 mM acetate buffer (pH 5.5), 5% sorbitol), and intravenously administered in a fluid volume of 10 mL/kg to the tail vein.
Human breast cancer cell line MX-1 was suspended into 50% Matrigel matrix, subcutaneously transplanted at 5×10^6 cells into the right side of female nude mice, and the mice were randomly grouped 13 days after the transplantation (Day 0). The HER3-ADC (1) was intravenously administered to the tail vein at a dose of 3 mg/kg on Day 0, Day 7 and Day 15. […] Single administration groups of each drug, a combined administration group, and a solvent administration group as a control group were set up.

[12] = test system: Human breast cancer cell line HCC70; assay: Antitumor study (7), subcutaneously transplanted HCC70 cells, HER3-ADC (1); format: in vivo; settings: HCC70 s.c. in nude mice; HER3-ADC (1) 10 mg/kg iv Day 0, 7, 14; olaparib 100 mg/kg po, talazoparib 0.4 mg/kg po once a day, five times a week, two weeks
Procedure: as §7, §8
Human breast cancer cell line HCC70 was suspended into physiological saline, subcutaneously transplanted at 1×10^7 cells into the right side of female nude mice, and the mice were randomly grouped 13 days after the transplantation (Day 0). The HER3-ADC (1) was intravenously administered to the tail vein at a dose of 10 mg/kg on Day 0, Day 7 and Day 14. […] Single administration groups of each drug, a combined administration group, and a solvent administration group as a control group were set up.

[13] = test system: Human breast cancer cell line JIMT-1; settings: mouse, in vivo
Procedure: Measurement and calculation formula: In all studies, the major axis and minor axis of tumors were measured twice a week with an electronic digital caliper (CD15-CX, Mitutoyo Corp.), and the tumor volume (mm^3) was calculated.
as §5, §6
Human breast cancer cell line JIMT-1, which was purchased from DSMZ (Deutsche Sammlung von Mikroorganismen and Zellkulturen GmbH), was suspended into physiological saline, subcutaneously transplanted at 5×10^6 cells into the right side of female nude mice, and the mice were randomly grouped 10 days after the transplantation (Day 0). The HER2-ADC (1) was intravenously administered to the tail vein at a dose of 10 mg/kg on Day 0. […] Single administration groups of each drug, a combined administration group, and a solvent administration group as a control group were set up.

[14] = test system: Human breast cancer cell line HCC1806; settings: mouse, in vivo
Procedure: as §3, §5
Tumor growth inhibition (TGI) was calculated in accordance with the following calculation formula.
as §4
Rucaparib (camsylate) was dissolved with DMSO, diluted with physiological saline, and orally administered in a fluid volume of 10 mL/kg. Talazoparib was dissolved with DMSO, diluted with 10% N,N-Dimethylacetamide/5% Kolliphor HS 15/Dulbecco's Phosphate-Buffered Saline, and orally administered in a fluid volume of 10 mL/kg.
Human breast cancer cell line HCC1806, which was Purchased from ATCC, was suspended into physiological saline, subcutaneously transplanted at 1×10^6 cells into the right side of female nude mice, and the mice were randomly grouped 10 days after the transplantation (Day 0). […] Single administration groups of each drug, a combined administration group, and a solvent administration group as a control group were set up, and tumor growth inhibition (TGI) on Day 21 was calculated.

[15] = 6 days, rucaparib (phosphate), >0 synergistic
[16] = all combinations with olaparib, talazoparib, rucaparib, niraparib
[17] = KPL-4 s.c. in nude mice, last day of study, HER2-ADC (1) 7.5 mg/kg iv Day 0, olaparib 50 mg/kg ip, niraparib 50 mg/kg po, talazoparib 0.4 mg/kg po, rucaparib (camsylate) 150 mg/kg po, once a day, five times a week, two weeks

## CC[C@@]1(O)C(=O)OCc2c1cc1n(c2=O)Cc2c-1nc1cc(F)c(C)c3c1c2[C@@H](NC(=O)CO)CC3 [Compound (1)]
[1]; 6 days, >0 synergistic
  Synergy Score of combination with Niraparib: 1.23
  Synergy Score of combination with Talazoparib: 4.58
[1]; 6 days, >0 synergistic, 0 additive, <0 antagonistic
  Synergy Score of combination with Olaparib: 3.21
[1]; [15]
  Synergy Score of combination with Rucaparib: 1.93
[1]; [16]
  combination effect in cell growth inhibition study: synergistic effects
[2]; 6 days, >0 synergistic
  Synergy Score of combination with Niraparib: 3.68
  Synergy Score of combination with Olaparib: 3.97
  Synergy Score of combination with Talazoparib: 4.86
[2]; [15]
  Synergy Score of combination with Rucaparib: 4.97
[2]; [16]
  combination effect in cell growth inhibition study: synergistic effects
[3]; 6 days, >0 synergistic
  Synergy Score of combination with Niraparib: 3.17
  Synergy Score of combination with Olaparib: 3.39
  Synergy Score of combination with Talazoparib: 5.66
[3]; [15]
  Synergy Score of combination with Rucaparib: 4.41
[3]; [16]
  combination effect in cell growth inhibition study: synergistic effects
[4]; 6 days, >0 synergistic
  Synergy Score of combination with Niraparib: 1.61
  Synergy Score of combination with Olaparib: 1.98
  Synergy Score of combination with Talazoparib: 4.61
[4]; [15]
  Synergy Score of combination with Rucaparib: 2.48
[4]; [16]
  combination effect in cell growth inhibition study: synergistic effects
[5]; 6 days, >0 synergistic
  Synergy Score of combination with Niraparib: 1.85
  Synergy Score of combination with Olaparib: 1.56
  Synergy Score of combination with Talazoparib: 3.25
[5]; [15]
  Synergy Score of combination with Rucaparib: 2.15
[5]; [16]
  combination effect in cell growth inhibition study: synergistic effects

## NC(=O)c1cccc2cn(-c3ccc([C@@H]4CCCNC4)cc3)nc12 [niraparib]
[6]; mouse, in vivo
  tumor growth inhibition (TGI), single administration: 39%
[7]
  mice euthanized due to weight loss: 1 case out of 6 cases

## O=C(c1cc(Cc2n[nH]c(=O)c3ccccc23)ccc1F)N1CCN(C(=O)C2CC2)CC1 [olaparib]
[6]; [17]
  tumor growth inhibition (TGI), single administration: 21%
[8]
  TGI, single administration: 26%
[9]
  TGI, single administration: 15%
[10]
  TGI, single administration: 44%
[11]
  TGI, single administration: 23%
[12]
  TGI, single administration: 18%

## CNCc1ccc(-c2[nH]c3cc(F)cc4c3c2CCNC4=O)cc1 [rucaparib]
[6]; [17]
  tumor growth inhibition (TGI), single administration: 42%
[7]
  mice euthanized due to weight loss: 1 case out of 6 cases

## Cn1ncnc1[C@H]1c2n[nH]c(=O)c3cc(F)cc(c23)N[C@@H]1c1ccc(F)cc1 [talazoparib]
[6]; [17]
  tumor growth inhibition (TGI), single administration: 31%
[8]
  TGI, single administration: -2%
[9]
  TGI, single administration: 12%
[10]
  TGI, single administration: 47%
[11]
  TGI, single administration: 49%
[12]
  TGI, single administration: 19%
[13]
  TGI, single administration: 13%
[14]
  TGI, single administration: 27%
